Measured values: patent publication US11484607B2, “PSMA-targeted NIR dyes and their uses” (On Target Laboratories, LLC, priority 2015, dated 2022)

Columns and labels:
[1] = tested on: human prostate tumor xenografts (22Rv1 cells); assay: Tissue biodistribution and tumor-to-tissue fluorescence ratio of DUPA-NIR conjugates, IVIS imaging; type: in vivo, mice; settings: 2 h after tail vein injection
Description: In vivo studies. More specifically, biodistribution of DUPA-NIR conjugates 1-9 was monitored using fluorescence imaging of mice bearing human prostate tumor xenografts (22Rv1 cells). Male nude mice with 22Rv1 tumor xenografts were injected with DUPA-NIR dye conjugates via tail vein. The mice were euthanized 2 h after administration of the DUPA-NIR dye conjugate, selected tissues were harvested, and tissues were imaged with IVIS imager (ex=745 nm, em=ICG, exposure time=1 s).
The conjugates were also tested to show the ratio of tumor-to-tissue fluorescence. […] After imaging, fluorescence within a Region of interest (ROI) was measured for each tissue using In Vivo imaging software and tumor-to-tissue fluorescence was then calculated
(§1) in vivo studies. […] Male nude mice with 22Rv1 tumor xenografts were injected with DUPA-NIR dye conjugates via tail vein. The mice were euthanized 2 h after administration of the DUPA-NIR dye conjugate, selected tissues were harvested, and tissues were imaged with IVIS imager (ex=745 nm, em=ICG, exposure time=1 s). After imaging, fluorescence within a Region of interest (ROI) was measured for each tissue using In Vivo imaging software and tumor-to-tissue fluorescence was then calculated.
Male nude mice with 22Rv1 tumor xenografts were injected with DUPA-NIR dye conjugates via tail vein. The mice were euthanized 2 h after administration of the DUPA-NIR dye conjugate, selected tissues were harvested, and tissues were imaged with IVIS imager (ex=745 nm, em=ICG, exposure time=1 s). After imaging, fluorescence within a Region of interest (ROI) was measured for each tissue using In Vivo imaging software and tumor-to-tissue fluorescence was then calculated.
as §1, with “In vivo” for “in vivo”

PSMA = target: T1, PSMA (Homo sapiens, UniProt Q04609); assay: Relative binding affinity of DUPA-NIR conjugates with respect to DUPA-FITC on 22Rv1 cells, flow cytometry; settings: for Kd: 1 h at 37° C., 100 nM DUPA-FITC; for affinity for PSMA (in words): in vitro binding affinity data
T1 construct: host or cells: 22Rv1 human prostate cancer cells
Description: (§2) FIG. 3—Relative binding affinities of DUPA-NIR conjugates 1-9 with respect to DUPA-FITC (14). PSMA-positive 22Rv1 human prostate cancer cells were incubated for 1 h at 37° C. in the presence of 100 nM DUPA-FITC with increasing concentrations of DUPA-NIR conjugates. […] Cell bound fluorescence was assayed as using flow cytometry.
as §2, with “6—Relative” for “3—Relative”, “with aromatic amino acids linkers” for “1-9”
as §2, with “3 Relative” for “3—Relative”
in vitro studies. […] PSMA-positive 22Rv1 human prostate cancer cells were incubated for 1 h at 37° C. in the presence of 100 nM DUPA-FITC with increasing concentrations of DUPA-NIR conjugates. […] Cell bound fluorescence was assayed as using flow cytometry.
PSMA-positive 22Rv1 human prostate cancer cells were incubated for 1 h at 37° C. in the presence of 100 nM DUPA-FITC with increasing concentrations of DUPA-NIR conjugates. […] Cell bound fluorescence was assayed as using flow cytometry.
as §2, with “24: Relative” for “3—Relative”, “conjugates” for “conjugates 1-9”
PSMA-positive 22Rv1 human prostate cancer cells were incubated for 1 h at 37° C. in the presence of 100 nM DUPA-FITC with increasing concentrations of DUPA-NIR conjugates. […] Cell bound fluorescence was assayed as using flow cytometry
Cancer cells were incubated for 1 h at 37° C. in the presence of 100 nM DUPA-FITC with increasing concentrations of compound 15. […] Cell bound fluorescence was assayed as using flow cytometry.

basophils = assay: Basophil activation test (Flow CAST) in human blood samples; type: cell-based
Description: Tolerability Studies: The blood samples were collected into hirudin tubes and used within an hour of collection. For each donor, 4 different tubes were prepared for allergen, positive controls, and negative control. Samples were analyzed using Flow CAST® high sensitivity Basophil Activation Test (BAT). Briefly, stimulation buffer (100 μL, background) or anti-FcεER antibody (100 μL) or fMLP (100 μL) or OTL78 (75 μM in 100 μL of saline) was added to tubes containing stimulation buffer (200 μL). 100 μL of blood was added to each tube and mixed gently. After adding staining reagent (40 μL) containing anti-CD63-CD203c-PE-DY647 and anti-CCR3-PE, each tube was mixed gently and incubated for 15 minutes at 37° C. Lysing reagent (2 mL) was added to each tube, mixed gently, incubated for 5-10 minutes at room temperature, and centrifuged for 5 minutes at 500×g. The supernatant was discarded and the cells were re-suspended in wash buffer (900 μL) and analyzed using flow cytometry. CD63-CD203c-PE-DY647+/CCR3-PE+ cell population considered as the activated basophils.

[2] = conjugates with variable length spacers
[3] = Example 5, variably charged NIR dye

T1 sequence (Q04609 whole entry): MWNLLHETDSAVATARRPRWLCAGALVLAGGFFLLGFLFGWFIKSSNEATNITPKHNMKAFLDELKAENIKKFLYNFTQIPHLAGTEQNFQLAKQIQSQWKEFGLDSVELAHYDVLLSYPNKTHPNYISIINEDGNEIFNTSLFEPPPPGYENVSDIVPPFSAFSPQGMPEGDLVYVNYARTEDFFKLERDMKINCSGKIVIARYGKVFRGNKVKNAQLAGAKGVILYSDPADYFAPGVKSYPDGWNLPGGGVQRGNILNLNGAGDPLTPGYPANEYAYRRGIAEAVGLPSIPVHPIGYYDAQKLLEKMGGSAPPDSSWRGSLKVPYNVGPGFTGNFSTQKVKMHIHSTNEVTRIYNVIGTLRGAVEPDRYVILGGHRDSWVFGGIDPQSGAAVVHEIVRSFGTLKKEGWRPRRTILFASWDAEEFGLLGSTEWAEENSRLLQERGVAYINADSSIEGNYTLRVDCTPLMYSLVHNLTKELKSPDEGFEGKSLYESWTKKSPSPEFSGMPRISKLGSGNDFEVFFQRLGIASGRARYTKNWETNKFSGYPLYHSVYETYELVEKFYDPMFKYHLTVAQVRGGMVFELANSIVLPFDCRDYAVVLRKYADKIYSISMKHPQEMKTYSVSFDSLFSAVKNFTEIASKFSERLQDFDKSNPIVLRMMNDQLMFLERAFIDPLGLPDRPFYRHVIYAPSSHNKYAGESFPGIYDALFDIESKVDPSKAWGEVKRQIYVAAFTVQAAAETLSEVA

Row | Kd (PSMA; [2]) | affinity for PSMA (in words) (PSMA) | SMILES | fluorescence intensity in the tumor / tumor accumulation [1] | tumor-to-background ratio (TBR), in words [1] | further results
1 | 0.0268 µM | – | CC1(C)C(/C=C/C2=C(Oc3ccc(C[C@H](NC(=O)CCCCCCCNC(=O)[C@H](Cc4ccccc4)NC(=O)[C@H](Cc4ccccc4)NC(=O)C[C@H](NC(=O)CC[C@H](NC(=O)N[C@@H](CCC(=O)O)C(=O)O)C(=O)O)C(=O)O)C(=O)O)cc3)C(=C/C=C3/N(CCCCS(=O)(=O)O)c4ccc(S(=O)(=O)O)cc4C3(C)C)/CCC2)=[N+](CCCCS(=O)(=O)[O-])c2ccc(S(=O)(=O)O)cc21 [Compound 7] | lower | third best | –
2 | 0.0357 µM | – | CC1(C)C(/C=C/C2=C(Oc3ccc(C[C@H](NC(=O)CCCCCCCNC(=O)[C@H](Cc4ccccc4)NC(=O)[C@H](Cc4ccccc4)NC(=O)CC[C@H](NC(=O)N[C@@H](CCC(=O)O)C(=O)O)C(=O)O)C(=O)O)cc3)C(=C/C=C3/N(CCCCS(=O)(=O)O)c4ccc(S(=O)(=O)O)cc4C3(C)C)/CCC2)=[N+](CCCCS(=O)(=O)[O-])c2ccc(S(=O)(=O)O)cc21 [Compound 6] | lower | second | –
3 | 0.0152 µM | very high affinity | CC1(C)C(/C=C/C2=C(Oc3ccc(C[C@H](NC(=O)CCCCCCCNC(=O)CC[C@H](NC(=O)N[C@@H](CCC(=O)O)C(=O)O)C(=O)O)C(=O)O)cc3)C(=C/C=C3/N(CCCCS(=O)(=O)O)c4ccc(S(=O)(=O)O)cc4C3(C)C)/CCC2)=[N+](CCCCS(=O)(=O)[O-])c2ccc(S(=O)(=O)O)cc21 [Compound 4, DUPA-EAOA-Tyr-S0456] | higher fluorescence intensity | best | –
4 | – | low affinity | CC1(C)C(=CC=C2CCCC(C=CC3=[N+](CCCCS(=O)(=O)[O-])c4ccccc4C3(C)C)=C2Oc2ccc(CC(NC(=O)C(CCCNC(=N)N)NC(=O)C(Cc3ccccc3)NC(=O)CCCCCCCNC(=O)CCC(NC(=O)NC(CCC(=O)O)C(=O)O)C(=O)O)C(=O)O)cc2)N(CCCCS(=O)(=O)O)c2ccccc21 (stereo not shown) [Compound 65] | – | – | –
5 | 0.0122 µM | very high affinity | CC1(C)C(/C=C/C2=C(Oc3ccc(C[C@H](NC(=O)CCCCCCCNC(=O)[C@H](Cc4ccccc4)NC(=O)CC[C@H](NC(=O)N[C@@H](CCC(=O)O)C(=O)O)C(=O)O)C(=O)O)cc3)C(=C/C=C3/N(CCCCS(=O)(=O)O)c4ccc(S(=O)(=O)O)cc4C3(C)C)/CCC2)=[N+](CCCCS(=O)(=O)[O-])c2ccc(S(=O)(=O)O)cc21 [Compound 5] | – | – | –
6 | – | low binding affinity | CC1(C)C(=CC=C2CCCC(C=CC3=[N+](CCCCS(=O)(=O)[O-])c4ccc(S(=O)(=O)O)cc4C3(C)C)=C2Oc2ccc(CC(NC(=O)CC(NC(=O)C(Cc3ccccc3)NC(=O)C(Cc3ccccc3)NC(=O)CCCCCCCNC(=O)CCC(NC(=O)NC(CCC(=O)O)C(=O)O)C(=O)O)C(=O)O)C(=O)O)cc2)N(CCCCS(=O)(=O)O)c2ccc(S(=O)(=O)O)cc21 (stereo not shown) [Compound 49] | very high tumor accumulation (high fluorescence intensity) | good | –

Continued, compound first:

Row | SMILES | Kd (PSMA; [2]) | affinity for PSMA (in words) (PSMA) | fluorescence intensity in the tumor / tumor accumulation [1] | tumor-to-background ratio (TBR), in words [1] | further results
7 | CSCC[C@H](NC=O)C(=O)N[C@@H](CC(C)C)C(=O)N[C@@H](Cc1ccccc1)C(=O)O [fMLP, N-formylmethionyl-leucyl-phenylalanine] | – | – | – | – | positive response (% activated basophils) (basophils; FIG. 47E): 73.5%; stimulated index (basophils; FIG. 47E, ≥2 considered positive response): 29.5; Percent of basophile activation, Avg (basophils; average of 3 healthy subjects): 60%; Percent of basophile activation, Subject 1 (basophils; healthy subjects, OTL78 75 μM): 73.5%; Percent of basophile activation, Subject 2 (basophils; healthy subjects, OTL78 75 μM): 55.9%; Percent of basophile activation, Subject 3 (basophils; healthy subjects, OTL78 75 μM): 50.6%; SI = Avg/background (basophils; stimulation index, ≥2 considered positive response): 23.1
8 | CN1/C(=C/C=C2\CCCC(/C=C/C3=[N+](C)c4ccccc4C3(C)C)=C2Oc2ccc(C[C@H](NC(=O)[C@H](Cc3ccccc3)NC(=O)CCCCCCCNC(=O)CC[C@H](NC(=O)N[C@@H](CCC(=O)O)C(=O)O)C(=O)O)C(=O)O)cc2)C(C)(C)c2ccccc21 [Compound 55] | – | very high affinity | – | – | Kd (PSMA; [3]): 0.0073 µM
9 | CC1(C)C(/C=C/C2=C(Oc3ccc(C[C@H](NC(=O)[C@H](Cc4ccccc4)NC(=O)CCCCCCCNC(=O)CC[C@H](NC(=O)N[C@@H](CCC(=O)O)C(=O)O)C(=O)O)C(=O)O)cc3)C(=C/C=C3/N(CCCCS(=O)(=O)O)c4ccccc4C3(C)C)/CCC2)=[N+](CCCCS(=O)(=O)[O-])c2ccccc21 [Compound 54] | – | – | – | – | Kd (PSMA; [3]): 0.0026 µM
10 | CC1(C)C(/C=C/C2=C(Oc3ccc(C[C@H](NC(=O)CC[C@H](NC(=O)N[C@@H](CCC(=O)O)C(=O)O)C(=O)O)C(=O)O)cc3)C(=C/C=C3/N(CCCCS(=O)(=O)O)c4ccc(S(=O)(=O)O)cc4C3(C)C)/CCC2)=[N+](CCCCS(=O)(=O)[O-])c2ccc(S(=O)(=O)O)cc21 [Compound 1] | 0.142 µM | low affinity | – | – | –
11 | CC1(C)C(=CC=C2CCOC(C=CC3=[N+](CCCCS(=O)(=O)[O-])c4ccc(S(=O)(=O)O)cc4C3(C)C)=C2c2ccc(C(=O)NCCNC(=O)C(Cc3ccccc3)NC(=O)CCCCCCCNC(=O)CCC(NC(=O)NC(CCC(=O)O)C(=O)O)C(=O)O)cc2)N(CCCCS(=O)(=O)O)c2ccc(S(=O)(=O)O)cc21 (stereo not shown) [Compound 62] | – | low affinity | – | – | –
12 | CC1(C)C(/C=C/C2=C(Oc3ccc(C[C@H](NC(=O)[C@H](Cc4ccccc4)NC(=O)CCCCCCCNC(=O)CC[C@H](NC(=O)N[C@@H](CCC(=O)O)C(=O)O)C(=O)O)C(=O)O)cc3)C(=C/C=C3/N(CCC[N+](C)(C)C)c4ccc(S(=O)(=O)O)cc4C3(C)C)/CCC2)=[N+](CCC[N+](C)(C)C)c2ccc(S(=O)(=O)O)cc21 [Compound 60] | – | – | – | – | Kd (PSMA; [3]): 0.0054 µM
13 | CC1(C)C(/C=C/C2=C(Oc3ccc(C[C@H](NC(=O)CCCCCCCNC(=O)[C@H](Cc4ccccc4)NC(=O)[C@H](Cc4ccccc4)NC(=O)CCCCCCCNC(=O)CC[C@H](NC(=O)N[C@@H](CCC(=O)O)C(=O)O)C(=O)O)C(=O)O)cc3)C(=C/C=C3/N(CCCCS(=O)(=O)O)c4ccc(S(=O)(=O)O)cc4C3(C)C)/CCC2)=[N+](CCCCS(=O)(=O)[O-])c2ccc(S(=O)(=O)O)cc21 [Compound 34] | – | – | – | – | Kd (PSMA; conjugates with aromatic linkers): 0.0349 µM
